In patent US20040191115A1 (priority 2003, published 2004):
Values joined by “and” are separate entries in the source; they are usually repeats but may differ in a detail not shown here. Equal entries are not always repeated. Where two headings read alike, the source gives them in different places.

Test system: bacillus atrophaeus spores
Conditions: 2.52 percent H2O2, with cartons; for average count of colony forming units for the time period / log of average count for the time period: mean of samples; for average count of colony forming units for the time period / log of average count for the time period / Log Red. (Avg): normal speed; for Average CFU/mL / Average CFU/mandrel / Log (of Average CFU/mandrel) / Result #1 CFU/mL / Result #2 CFU/mL: normal operating speed
Procedure: Studies were conducted to determine the microbial eradication on mandrels 34 that were subjected to vaporized sterilant introduced at the heaters 40. […] The efficacy of the mandrel sterilization was studied for both the mandrel caps 35 and the mandrel side tubes 37 (see FIG. 3).
Each of the studies was further carried out using a testing media of bacillus atrophaeus spores for inoculating the mandrels. The mandrels were inoculated by spraying, using an aerating spray bottle having a solution with a concentration of about 7 log bacillus spores. The mandrels were then allowed to air dry. Controls were swabbed using cotton swabs to assure that the mandrels were properly inoculated. Following the machine operating period of the test, the mandrels were swabbed and the bacillus spores transferred to an agar media for incubation of the spores (at 32° C. for 48 hours) and subsequent recovery.
The data was collected by taking swab samples at the mandrel cap (C) and on the mandrel side tubes (T). The mandrel side tube data is the sum of all of the side tubes.

[1] = time 0 min, swab site C (mandrel cap)
[2] = time 0 min, swab site T (mandrel side tubes)
[3] = time 10 min, swab site C (mandrel cap)
[4] = time 10 min, swab site T (mandrel side tubes)
[5] = time 20 min, swab site C (mandrel cap)
[6] = time 20 min, swab site T (mandrel side tubes)
[7] = time 30 min, swab site C (mandrel cap)
[8] = time 30 min, swab site T (mandrel side tubes)
[9] = time 40 min, swab site T (mandrel side tubes)

## OO [hydrogen peroxide]
Time 0 min, cap
  average count of colony forming units for the time period: 5.09E+05 CFU/mandrel
  log of average count for the time period: 5.71 log
Time 0 min, side tubes
  average count of colony forming units for the time period: 7.12E+05 CFU/mandrel
  log of average count for the time period: 5.85 log
[1]
  Average CFU/mL: 1.32E+05 CFU/mL and 1.23E+05 CFU/mL
  Average CFU/mandrel: 5.28E+05 CFU/mandrel and 4.90E+05 CFU/mandrel
  Log (of Average CFU/mandrel): 5.72 Log and 5.69 Log
  Result #1 CFU/mL: 1.19E+05 CFU/mL and 1.30E+05 CFU/mL
  Result #2 CFU/mL: 1.45E+05 CFU/mL and 1.15E+05 CFU/mL
[2]
  Average CFU/mL: 1.83E+05 CFU/mL and 1.73E+05 CFU/mL
  Average CFU/mandrel: 7.32E+05 CFU/mandrel and 6.92E+05 CFU/mandrel
  Log (of Average CFU/mandrel): 5.86 Log and 5.84 Log
  Result #1 CFU/mL: 1.39E+05 CFU/mL and 1.71E+05 CFU/mL
  Result #2 CFU/mL: 2.27E+05 CFU/mL and 1.75E+05 CFU/mL
Time 10 min, cap
  average count of colony forming units for the time period: 1.57E+05 CFU/mandrel
  log of average count for the time period: 5.20 log
Time 10 min, side tubes
  average count of colony forming units for the time period: 3.58E+05 CFU/mandrel
  log of average count for the time period: 5.55 log
[3]
  Average CFU/mL: 3.35E+04 CFU/mL and 4.50E+04 CFU/mL
  Average CFU/mandrel: 1.34E+05 CFU/mandrel and 1.80E+05 CFU/mandrel
  Log (of Average CFU/mandrel): 5.13 Log and 5.26 Log
  Result #1 CFU/mL: 3.50E+04 CFU/mL and 4.40E+04 CFU/mL
  Result #2 CFU/mL: 3.20E+04 CFU/mL and 4.60E+04 CFU/mL
[4]
  Average CFU/mL: 9.25E+04 CFU/mL and 8.65E+04 CFU/mL
  Average CFU/mandrel: 3.70E+05 CFU/mandrel and 3.46E+05 CFU/mandrel
  Log (of Average CFU/mandrel): 5.57 Log and 5.54 Log
  Result #2 CFU/mL: 9.70E+04 CFU/mL and 6.70E+04 CFU/mL
Time 10 min relative to time zero, cap
  Log Red. (Avg): 0.51 Log
Time 10 min relative to time zero, side tubes
  Log Red. (Avg): 0.30 Log
Time 20 min, cap
  average count of colony forming units for the time period: 8.86E+04 CFU/mandrel
  log of average count for the time period: 4.95 log
Time 20 min, side tubes
  average count of colony forming units for the time period: 4.49E+05 CFU/mandrel
  log of average count for the time period: 5.65 log
[5]
  Log (of Average CFU/mandrel): 4.88 Log and 5.01 Log
  Result #1 CFU/mL: 1.93E+04 CFU/mL and 2.82E+04 CFU/mL
  Result #2 CFU/mL: 1.86E+04 CFU/mL and 2.25E+04 CFU/mL
[6]
  Average CFU/mandrel: 5.58E+05 CFU/mandrel and 3.40E+05 CFU/mandrel
  Log (of Average CFU/mandrel): 5.75 Log and 5.53 Log
Time 20 min relative to time zero, cap
  Log Red. (Avg): 0.76 Log
Time 20 min relative to time zero, side tubes
  Log Red. (Avg): 0.20 Log
Time 30 min, cap
  average count of colony forming units for the time period: 4.39E+04 CFU/mandrel
  log of average count for the time period: 4.64 log
Time 30 min, side tubes
  average count of colony forming units for the time period: 2.49E+05 CFU/mandrel
  log of average count for the time period: 5.40 log
[7]
  Average CFU/mandrel: 5.06E+04 CFU/mandrel and 3.72E+04 CFU/mandrel
  Log (of Average CFU/mandrel): 4.70 Log and 4.57 Log
  Result #2 CFU/mL: 1.12E+04 CFU/mL and 1.04E+04 CFU/mL
[8]
  Average CFU/mL: 6.25E+04 CFU/mL and 6.20E+04 CFU/mL
  Average CFU/mandrel: 2.50E+05 CFU/mandrel and 2.48E+05 CFU/mandrel
  Log (of Average CFU/mandrel): 5.40 Log and 5.39 Log
  Result #1 CFU/mL: 6.30E+04 CFU/mL and 5.10E+04 CFU/mL
  Result #2 CFU/mL: 6.20E+04 CFU/mL and 7.30E+04 CFU/mL
Time 30 min relative to time zero, cap
  Log Red. (Avg): 1.06 Log
Time 30 min relative to time zero, side tubes
  Log Red. (Avg): 0.46 Log
Time 40 min, cap
  average count of colony forming units for the time period: 5.21E+03 CFU/mandrel
  log of average count for the time period: 3.72 log
Time 40 min, side tubes
  average count of colony forming units for the time period: 1.15E+05 CFU/mandrel
  log of average count for the time period: 5.06 log
[9]
  Average CFU/mL: 2.71E+04 CFU/mL and 3.05E+04 CFU/mL
  Average CFU/mandrel: 1.08E+05 CFU/mandrel and 1.22E+05 CFU/mandrel
  Log (of Average CFU/mandrel): 5.04 Log and 5.09 Log
  Result #1 CFU/mL: 2.50E+04 CFU/mL and 2.89E+04 CFU/mL
  Result #2 CFU/mL: 2.92E+04 CFU/mL and 3.21E+04 CFU/mL
Time 40 min relative to time zero, cap
  Log Red. (Avg): 1.99 Log
Time 40 min relative to time zero, side tubes
  Log Red. (Avg): 0.79 Log
